Measured values from patent publication US7618983B2, “Bicyclic triazole α4 integrin inhibitors” (Janssen Pharmaceutica, N.V., priority 2004, dated 2009).

Target: α4β1 (Homo sapiens, UniProt P05556+P13612)
Experiment: Ramos Cell Adhesion Assay (α4β1 Mediated Adhesion/VCAM-1)
Format: cell-based
Parameters: Ramos Cell Adhesion Assay (α4β1 Mediated Adhesion/VCAM-1); endogenous in cells; host or cells: Ramos cells
Details: Ramos cells adhering to recombinant hVCAM-1; read-out: α4β1 IC50
Method: Ramos Cell Adhesion Assay (α4β1 Mediated Adhesion/VCAM-1)
Immulon 96 well plates (Dynex) were coated with 100 μL recombinant hVCAM-1 at 4.0 μg/mL in 0.05 M NaCO3 buffer pH 9.0 overnight at 4° C. (R&D Systems). Plates were washed 3 times in PBS with 1% BSA and blocked for 1 h @ room temperature in this buffer. PBS was removed and compounds to be tested (50 μL) were added at 2× concentration. Ramos cells, (50 μL at 2×10^6/mL) labeled with 5 μM Calcein AM (Molecular Probes) for 1 h at 37° C., were added to each well and allowed to adhere for 1 h at room temperature. Plates were washed 3× in PBS+1% BSA and cells were lysed for 15 minutes in 100 μL of 1 M Tris pH 8.0 with 1% SDS. The plate was read at 485 nm excitation and 530 nm emission.

Sequence of α4β1 (P13612 34-1032): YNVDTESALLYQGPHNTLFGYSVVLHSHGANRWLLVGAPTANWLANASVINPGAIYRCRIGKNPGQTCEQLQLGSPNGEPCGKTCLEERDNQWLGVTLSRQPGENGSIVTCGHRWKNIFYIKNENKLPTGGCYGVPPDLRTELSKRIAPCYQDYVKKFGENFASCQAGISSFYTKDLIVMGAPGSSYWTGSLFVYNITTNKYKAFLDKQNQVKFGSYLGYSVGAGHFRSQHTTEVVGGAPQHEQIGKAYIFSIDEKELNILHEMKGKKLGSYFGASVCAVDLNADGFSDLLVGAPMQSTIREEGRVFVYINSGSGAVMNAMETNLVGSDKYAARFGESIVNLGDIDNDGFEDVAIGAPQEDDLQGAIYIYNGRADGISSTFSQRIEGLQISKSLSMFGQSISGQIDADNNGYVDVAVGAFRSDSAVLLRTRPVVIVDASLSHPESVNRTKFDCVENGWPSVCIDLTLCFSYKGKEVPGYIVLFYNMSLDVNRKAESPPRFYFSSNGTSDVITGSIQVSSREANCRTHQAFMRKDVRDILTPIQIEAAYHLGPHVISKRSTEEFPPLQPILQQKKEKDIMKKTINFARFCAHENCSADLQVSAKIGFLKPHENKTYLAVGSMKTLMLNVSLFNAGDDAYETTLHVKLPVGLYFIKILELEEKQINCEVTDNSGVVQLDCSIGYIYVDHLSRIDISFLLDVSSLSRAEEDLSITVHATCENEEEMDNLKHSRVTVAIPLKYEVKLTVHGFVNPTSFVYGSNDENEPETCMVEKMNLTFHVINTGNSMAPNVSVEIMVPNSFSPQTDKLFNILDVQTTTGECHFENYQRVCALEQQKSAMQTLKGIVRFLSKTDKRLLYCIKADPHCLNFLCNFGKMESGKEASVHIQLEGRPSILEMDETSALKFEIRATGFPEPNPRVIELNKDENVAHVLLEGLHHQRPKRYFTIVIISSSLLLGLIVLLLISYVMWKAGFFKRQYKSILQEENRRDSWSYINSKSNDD
Sequence of α4β1 (P05556 21-798): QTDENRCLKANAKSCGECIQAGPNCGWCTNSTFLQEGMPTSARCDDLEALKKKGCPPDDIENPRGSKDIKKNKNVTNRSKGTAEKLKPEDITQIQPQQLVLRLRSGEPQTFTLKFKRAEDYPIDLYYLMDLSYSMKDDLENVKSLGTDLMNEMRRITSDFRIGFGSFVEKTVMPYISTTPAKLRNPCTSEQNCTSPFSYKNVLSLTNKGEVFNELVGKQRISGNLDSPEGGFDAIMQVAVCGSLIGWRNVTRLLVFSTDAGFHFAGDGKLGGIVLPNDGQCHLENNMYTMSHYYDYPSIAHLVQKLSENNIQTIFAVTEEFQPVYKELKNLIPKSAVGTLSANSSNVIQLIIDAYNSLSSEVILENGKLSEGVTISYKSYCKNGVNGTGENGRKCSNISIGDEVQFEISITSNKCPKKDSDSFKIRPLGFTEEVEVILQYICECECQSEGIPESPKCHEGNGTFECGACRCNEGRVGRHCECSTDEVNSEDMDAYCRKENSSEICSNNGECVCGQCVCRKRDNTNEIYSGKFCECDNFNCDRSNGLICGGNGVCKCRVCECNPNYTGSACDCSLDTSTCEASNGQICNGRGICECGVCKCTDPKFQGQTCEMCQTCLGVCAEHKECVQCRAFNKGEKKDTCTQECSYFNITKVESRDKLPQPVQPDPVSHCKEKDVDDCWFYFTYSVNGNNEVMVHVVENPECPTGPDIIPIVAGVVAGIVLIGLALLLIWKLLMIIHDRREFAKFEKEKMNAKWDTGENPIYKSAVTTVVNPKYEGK

IC50: > 5 µM
SMILES: NCc1nnc2n1[C@H](C(=O)N[C@@H](Cc1ccc(NC(=O)c3c(Cl)cccc3Cl)cc1)C(=O)O)CC2 [Cpd 14, 2-(S)-[(3-Aminomethyl-6,7-dihydro-5H-pyrrolo[2,1-c][1,2,4]triazole-5-(S)-carbonyl)-amino]-3-[4-(2,6-dichloro-benzoylamino)-phenyl]-propionic acid]
